Values quoted from earlier work as cited in US10813957B2, “Engineered oncolytic viruses containing hyper-binding sites to sequester and suppress activity of oncogenic transcription factors as a novel treatment for human cancer” (priority 2016, dated 2020).

Conditions: background statement

NC(=O)OC[C@H]1c2c(O)cc(C=O)cc2N2CC3N[C@@H]3[C@]1(O)O2 (stereo partly shown) [FR900482]
toxicity in humans: high toxicity
